Experimental findings from publication doi:10.1101/2024.09.26.610356v2 (biorxiv, 2024) are described below.

Each structure is given as a SMILES string.

Assay [1] addresses T1, human glucose-6-phosphate isomerase (GPI) (Homo sapiens, UniProt P06744). The assay is described as follows: G6PDH-coupled kinetic assay, dose response. It counts as biochemical.
In assay [2] the target is T1, human glucose-6-phosphate isomerase (GPI). The assay is described as follows: label-free MST. It counts as binding.
Assay [3] has the same target. The assay is described as follows: Michaelis-Menten kinetics, G6PDH-coupled assay. It counts as biochemical.
Assay [4] has as its target T2, human triosephosphate isomerase (TPI) (Homo sapiens, UniProt P60174). The assay is described as follows: GAPDH-coupled kinetic assay, dose response. It counts as biochemical.
For assay [5], the target named is T2, human triosephosphate isomerase (TPI). Briefly: label-free MST. It counts as binding.
For assay [6] the target is unchanged. Briefly: Michaelis-Menten kinetics, GAPDH-coupled assay. It counts as biochemical.

T2 sequence (P60174 whole entry): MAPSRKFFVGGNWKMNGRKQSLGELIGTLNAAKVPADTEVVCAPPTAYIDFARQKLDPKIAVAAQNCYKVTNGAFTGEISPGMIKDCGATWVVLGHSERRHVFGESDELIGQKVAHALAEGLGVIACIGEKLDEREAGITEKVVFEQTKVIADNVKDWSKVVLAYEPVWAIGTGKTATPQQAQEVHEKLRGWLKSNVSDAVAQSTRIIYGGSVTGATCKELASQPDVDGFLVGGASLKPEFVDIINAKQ

Take `Nc1ncnc2c1ncn2[C@@H]1O[C@H](COP(=O)(O)OP(=O)(O)O)[C@@H](O)[C@H]1O` [ADP]: in assay [1], it took 8.66 ± 1.37 mM to reach a half-maximal effect (EC50). Besides, the Kd in assay [2] is 19.3 ± 0.96 mM. Moreover, in assay [3], the Ki was determined as 3.97 mM.
The like results for `C/C(=C/C(=O)O)C(=O)O` [Citraconate] were, in that order, 8.05 ± 2.34 mM, 20.1 ± 2.03 mM and 2.17 mM.
In the same order, the values of `O=C(CO)COP(=O)(O)O` [Dihydroxyacetone phosphate] are 8.24 ± 1.94 mM, 17.5 ± 0.98 mM and 4.47 mM.
The molecule `O=P(O)(O)OC(CO)CO` [Glycerol-2-phosphate] registered an EC50 in assay [4] of 7.31 ± 1.22 mM. The molecule further showed a Kd in assay [5] of 5.31 ± 1.07 mM. The molecule also had a Ki in assay [6] of 1.89 mM.
Take `O=P(O)(O)OC[C@H](O)CO` [Glycerol-3-phosphate]: it took 8.65 ± 1.49 mM to reach a half-maximal effect in assay [4] (EC50). Further, in assay [5], the Kd came out at 6.79 ± 2.3 mM. In assay [6], the affinity, expressed as Ki, was 2.04 mM.
In assay [1], `NCCc1c[nH]cn1` [Histamine] came in with an EC50 of 7.35 ± 1.26 mM. The molecule further came in with a dissociation constant (Kd) in assay [2] of 13.1 ± 0.64 mM. In assay [3], this molecule had an inhibition constant (Ki) of 9.25 mM.
As for `NO` [Hydroxylamine], a half-maximal response in assay [1] (EC50) required 14.6 ± 1.99 mM. For the same molecule, the Ki in assay [3] is 21.1 mM.
Take `O=C(O)/C=C\C(=O)O` [Maleate]: in assay [1], the EC50 amounted to 9.48 ± 2.85 mM. In addition, in assay [2], the Kd was determined as 14.4 ± 2.07 mM. Also, the Ki in assay [3] worked out at 7.15 mM.
`CC(C(=O)O)C(=O)O` [Methylmalonate] displayed an EC50 in assay [4] of 16.3 ± 2.54 mM. The molecule also yielded a Kd in assay [5] of 12.2 ± 1.9 mM. Besides, in assay [6], the Ki was found to be 17.3 mM.
For `O=C(O)C(=O)O` [Oxalate], the EC50 in assay [4] stood at 12.6 ± 0.76 mM. Besides, the Kd in assay [5] was 19.1 ± 1.38 mM. Moreover, in assay [6], affinity was put at a Ki of 27.3 mM.
On to `C=C(OP(=O)(O)O)C(=O)O` [Phosphoenolpyruvate], for which the EC50 in assay [1] is 11.8 ± 1.33 mM. In assay [2], this molecule showed a Kd of 11.1 ± 1.44 mM. Affinity in assay [3] was put at a Ki of 5.61 mM.

A word on the EC50: it is the concentration at which the effect is half-maximal. A high value points to weaker potency. What is called Kd is the free concentration of one partner at which half of the binding sites on the other are occupied at equilibrium, for simple one-to-one binding. Low readings indicate a tighter complex, high ones a looser complex. As usually defined, the Ki is the equilibrium dissociation constant of an inhibitor or competing ligand from its target. Higher therefore signals weaker binding.
